Assays:
Type in all cases: cell-based, human
DCs = test: Immune cell activation in PBMC cultures, flow cytometry: DCs; settings: for DCs CD80 Fold / DCs CD69 Fold: 2 days, N = 4
Procedure: (§1) TLR8 is expressed on multiple immune cell subsets. To determine how treatment with a TLR8 modulating compound affects activation of distinct cell populations, PBMCs were purified from HIV-1 infected subjects on cART, as described in Example 121 (anonymized participant IDs 184, 185, 188, 189, 190, and 191). […] After incubation, PBMCs were harvested and stained with antibodies conjugated to specific fluorophores (BD Biosciences) to delineate immune cell subsets: CD4 T cells (CD3+CD4+CD8−), CD8 T cells (CD3+CD8+CD4−), NK cells (CD3−CD56+CD16+), monocytes (CD3−CD14+), B cells (CD3−CD19+), and peripheral dendritic cells (DCs), defined as positive for HLA-DR and negative for a panel of markers: CD3, CD14, CD16, CD19, CD20, CD56 (Lin-1 lineage panel, BD Biosciences).
(§2) Additional markers of activation, maturation, and effector function were included for cell subsets, as follows: CD4 and CD8 T cells (CD25, CD38, CD69, IFN-γ, granzyme B, perforin, TNF-α), NK cells (CD25, CD69, IFN-γ), monocytes (CD11c, CD16, CD80, CD86, CD163, TNF-α), B cells (CD40, CD69, CD80, CD86), and DC (CD11c, CD69, CD80, CD86, CD123, and CD163). Cells were stained for surface markers (CD3, CD4, CD8, CD11c, CD14, CD16, CD25, CD69, CD80, CD86, CD163), washed, treated with fixation and permeabilization buffer (eBioscience), and stained for intracellular markers (IFN-γ, granzyme B, perforin, TNF-α). Cells were evaluated by flow cytometry on a LSR Fortessa (BD Biosciences), and data was analyzed with FlowJo software (TreeStar).
(§3) Data are expressed as geometric mean percentage (%) and as geometric mean fold-activation (Fold) for each marker and for each PBMC subset obtained from 4 or 6 subjects, as indicated. Fold activation is calculated as a ratio of the % positive for each marker for each PBMC subset at the indicated concentration of the compound of Example 15 relative to % positive for DMSO treated samples. Fold activations that are 1.5 are in bold.

CD4+ T Cells = test: Immune cell activation in PBMC cultures, flow cytometry: CD4+ T cells; settings: 2 days, N = 6
Procedure: as §1, §2, §3

HIV-infected CD4 T cells = test: PGT121 antibody-mediated killing of HIV-infected CD4 T cells, monocyte effector model; settings: monocytes from 1 subject pre-treated 1 day with 11 or 33 nM
Text: NK cells and monocytes mediate antibody-dependent cellular cytotoxicity (ADCC) and antibody-dependent cellular phagocytosis (ADCP) respectively. To assess the ability of the compound of Example 15 to enhance ADCC and ADCP, two models were developed using monocytes or PBMCs as effector cells and HIV-infected CD4 T cells as target cells. PBMCs were isolated from 3 healthy subjects' leukaphereses (AlICells, participant IDs A4593, A4596, A4606), as described above. CD4 T cells were isolated from PBMCs using negative selection magnetic beads (EasySep, StemCell Technologies). CD4 T cells were spinfected with HIV-1 isolate 92HT593 (NIH AIDS Reagent Program) and cultured for 5 days at 37° C. For the PBMC model, autologous PBMCs were cultured for 5 days with vehicle control (DMSO) or Example 15 at 100 or 1000 nM. […] Marker staining was measured by flow cytometry using a LSR Fortessa (BD Biosciences) and analyzed with FlowJo software (TreeStar). The percent killing was determined by calculating the reduction of p24+CD4+ T cells mediated by PGT121 antibody relative to a no antibody control.
PBMCs (FIG. 3) or monocytes (FIG. 4) were treated with DMSO or TLR8 agonist for 5 days (FIG. 3) or 1 day (FIG. 4) and then co-cultured for 1 day with autologous HIV-infected CD4 T cells−/+anti-HIV Env antibody PGT121. Reductions in %p24+ CD4+ T cells, relative to no antibody control, were measured by FACS. […]

CCCC[C@H](CO)Nc1nc(N)nc2cccnc12 [Example 15]
DCs CD80 Fold (DCs; 10 nM vs DMSO): 1.8 fold
DCs CD69 Fold (DCs; 100 nM vs DMSO): 0.4 fold
DCs CD80 Fold (DCs; 100 nM vs DMSO): 2.4 fold
DCs CD69 Fold (DCs; 1000 nM vs DMSO): 3.3 fold
DCs CD80 Fold (DCs; 1000 nM vs DMSO): 2.9 fold
DCs CD69 Fold (DCs; 3000 nM vs DMSO): 8.9 fold
DCs CD80 Fold (DCs; 3000 nM vs DMSO): 2.0 fold
Concentration of maximal activation of DCs (DCs; increased expression of CD69): 3000 nM
Concentration of maximal activation of DCs (DCs; increased expression of CD80): 1000 nM
CD4+ T Cells CD25 Fold (CD4+ T Cells; 10 nM vs DMSO): 0.6 fold
CD4+ T Cells CD69 Fold (CD4+ T Cells; 10 nM vs DMSO): 0.7 fold
CD4+ T Cells Perforin Fold (CD4+ T Cells; 10 nM vs DMSO): 1.5 fold
CD4+ T Cells CD25 % (CD4+ T Cells; 10 nM): 1.5%
CD4+ T Cells CD69 % (CD4+ T Cells; 10 nM): 5.7%
CD4+ T Cells CD25 Fold (CD4+ T Cells; 100 nM vs DMSO): 1.7 fold
CD4+ T Cells CD69 Fold (CD4+ T Cells; 100 nM vs DMSO): 1.0 fold
CD4+ T Cells Perforin Fold (CD4+ T Cells; 100 nM vs DMSO): 1.3 fold
CD4+ T Cells CD25 % (CD4+ T Cells; 100 nM): 3.9%
CD4+ T Cells CD69 % (CD4+ T Cells; 100 nM): 7.7%
CD4+ T Cells CD25 Fold (CD4+ T Cells; 1000 nM vs DMSO): 1.8 fold
CD4+ T Cells CD69 Fold (CD4+ T Cells; 1000 nM vs DMSO): 1.5 fold
CD4+ T Cells Perforin Fold (CD4+ T Cells; 1000 nM vs DMSO): 1.8 fold
CD4+ T Cells CD25 % (CD4+ T Cells; 1000 nM): 4.2%
CD4+ T Cells CD25 Fold (CD4+ T Cells; 3000 nM vs DMSO): 1.3 fold
CD4+ T Cells CD69 Fold (CD4+ T Cells; 3000 nM vs DMSO): 1.7 fold
CD4+ T Cells Perforin Fold (CD4+ T Cells; 3000 nM vs DMSO): 2.1 fold
CD4+ T Cells CD25 % (CD4+ T Cells; 3000 nM): 3.0%
CD4+ T Cells Perforin % (CD4+ T Cells; 3000 nM): 17.0%
PGT121-mediated killing of HIV-infected CD4+ T cells compared to DMSO control (HIV-infected CD4 T cells): markedly enhanced
